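Tested at 5 concentrations; 48 h exposure; 96-well plates; endpoints linearly interpolated, else capped at highest concentration. GI50 is the concentration that inhibits growth by half.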 Active and inactive are the calls of the source. Cut-off read from the data, not from the text of the source: active = GI50 up to about 1.1 µM and inactive = higher.
Assays:
Assay in all cases: DTP human tumour cell line panel, 48 h
[1] = system: OVCAR-4
[2] = system: MOLT-4
[3] = system: UO-31
[4] = system: SW-620
[5] = system: HCT-116
[6] = system: K562
[7] = system: SK-MEL-28
[8] = system: ACHN
[9] = system: U-251
[10] = system: SR
[11] = system: KM12
[12] = system: SNB-75
[13] = system: M14
[14] = system: NCI-H460
[15] = system: UACC-257
[16] = system: OVCAR-8
[17] = system: MCF7
[18] = system: SF-295
[19] = system: PC-3

SMILES	GI50 [1]	GI50 [2]	GI50 [3]	GI50 [4]	GI50 [5]	GI50 [6]	GI50 [7]	GI50 [8]	GI50 [9]	GI50 [10]	GI50 [11]	GI50 [12]	GI50 [13]	GI50 [14]	GI50 [15]	GI50 [16]	GI50 [17]	GI50 [18]	GI50 [19]
CNC(=O)C1CCc2nnc(-c3ccccc3)n21 (configuration not stated)	> 100 µM (inactive)	> 100 µM (inactive)	> 100 µM (inactive)	> 100 µM (inactive)	> 100 µM (inactive)	> 100 µM (inactive)	> 100 µM (inactive)	> 100 µM (inactive)	> 100 µM (inactive)	> 100 µM (inactive)	> 100 µM (inactive)	> 100 µM (inactive)	> 100 µM (inactive)	> 100 µM (inactive)	> 100 µM (inactive)	–	–	–	–
CC(C(N)=O)N(C)C(=O)c1cc2ccccc2[n+](Cc2ccccc2)c1 (configuration not stated)	> 100 µM (inactive)	> 100 µM (inactive)	> 100 µM (inactive)	> 100 µM (inactive)	> 100 µM (inactive)	> 100 µM (inactive)	> 100 µM (inactive)	> 100 µM (inactive)	> 100 µM (inactive)	–	> 100 µM (inactive)	> 100 µM (inactive)	> 100 µM (inactive)	> 100 µM (inactive)	> 100 µM (inactive)	> 100 µM (inactive)	> 100 µM (inactive)	> 100 µM (inactive)	> 100 µM (inactive)
COc1ccc(SS(=O)(=O)c2ccc(OC)cc2)cc1	–	13.2 µM (inactive)	13.9 µM (inactive)	3.69 µM (inactive)	16.1 µM (inactive)	21.7 µM (inactive)	19.6 µM (inactive)	18.4 µM (inactive)	14.2 µM (inactive)	23.1 µM (inactive)	16.5 µM (inactive)	23.2 µM (inactive)	20 µM (inactive)	38.6 µM (inactive)	22.9 µM (inactive)	16.6 µM (inactive)	–	19.5 µM (inactive)	–
CN1CCc2c(sc3ncn(Nc4ccc(Cl)cc4)c(=N)c23)C1	> 100 µM (inactive)	> 100 µM (inactive)	–	> 100 µM (inactive)	> 100 µM (inactive)	> 100 µM (inactive)	> 100 µM (inactive)	> 100 µM (inactive)	> 100 µM (inactive)	–	> 100 µM (inactive)	> 100 µM (inactive)	> 100 µM (inactive)	> 100 µM (inactive)	> 100 µM (inactive)	> 100 µM (inactive)	> 100 µM (inactive)	> 100 µM (inactive)	> 100 µM (inactive)
c1ccc(Nc2nnc(CSc3nc(-c4ccccc4)c(-c4ccccc4)[nH]3)s2)cc1	27 µM (inactive)	10.1 µM (inactive)	13.3 µM (inactive)	–	17.2 µM (inactive)	–	24.2 µM (inactive)	26.3 µM (inactive)	13.7 µM (inactive)	20.6 µM (inactive)	21.1 µM (inactive)	44.4 µM (inactive)	14.7 µM (inactive)	12.4 µM (inactive)	20.5 µM (inactive)	23 µM (inactive)	–	18.6 µM (inactive)	–
Cc1cc2c(cc1C)[n+]([O-])c(N1CCN(c3ccc([N+](=O)[O-])cc3)CC1)c(C#N)[n+]2[O-]	39.4 µM (inactive)	–	23.5 µM (inactive)	> 100 µM (inactive)	61.7 µM (inactive)	–	> 100 µM (inactive)	15.3 µM (inactive)	17 µM (inactive)	–	> 100 µM (inactive)	4.61 µM (inactive)	35.9 µM (inactive)	20.3 µM (inactive)	85.9 µM (inactive)	16.6 µM (inactive)	28.6 µM (inactive)	15.2 µM (inactive)	32.3 µM (inactive)
CO[C@H]1[C@@H](O)[C@H](O[C@@H]2C[C@H]3CC[C@@H]4[C@H](CC[C@]5(C)[C@@H](C6=CC(=O)OC6)CC[C@]45O)[C@@]3(C)[C@H](OC(C)=O)C2)O[C@@H](C)[C@H]1O	1.39 µM (inactive)	0.281 µM (active)	1.27 µM (inactive)	2.36 µM (inactive)	0.76 µM (active)	1.96 µM (inactive)	4.34 µM (inactive)	0.393 µM (active)	2.54 µM (inactive)	–	5.83 µM (inactive)	3.61 µM (inactive)	2.22 µM (inactive)	0.465 µM (active)	2.84 µM (inactive)	1.73 µM (inactive)	–	1.13 µM (inactive)	2.26 µM (inactive)
CCOC(=O)c1c(C)nc2c(c1-c1cn(-c3ccccc3)nc1-c1ccccc1)C(=O)c1ccccc1-2	> 100 µM (inactive)	> 100 µM (inactive)	–	> 100 µM (inactive)	> 100 µM (inactive)	> 100 µM (inactive)	> 100 µM (inactive)	–	> 100 µM (inactive)	> 10 µM (inactive)	0.337 µM (active)	> 100 µM (inactive)	> 100 µM (inactive)	–	> 100 µM (inactive)	> 100 µM (inactive)	–	> 100 µM (inactive)	> 100 µM (inactive)
O=C(Cn1c2ccc(Br)cc2c2nc3ccccc3nc21)Nc1ccccc1	20.9 µM (inactive)	> 100 µM (inactive)	42.2 µM (inactive)	24.8 µM (inactive)	14.5 µM (inactive)	38.8 µM (inactive)	36.1 µM (inactive)	50 µM (inactive)	24 µM (inactive)	–	56.8 µM (inactive)	21.3 µM (inactive)	30.1 µM (inactive)	31.8 µM (inactive)	78.2 µM (inactive)	15.1 µM (inactive)	–	31.3 µM (inactive)	18 µM (inactive)
Nc1nc(=O)n([C@@H]2CC[C@H](CO)O2)cc1F	> 100 µM (inactive)	> 100 µM (inactive)	> 100 µM (inactive)	> 100 µM (inactive)	–	> 100 µM (inactive)	> 100 µM (inactive)	> 100 µM (inactive)	> 100 µM (inactive)	–	> 100 µM (inactive)	> 100 µM (inactive)	> 100 µM (inactive)	> 100 µM (inactive)	> 100 µM (inactive)	> 100 µM (inactive)	–	> 100 µM (inactive)	–
CCCCCCCCCCCCCCCC(=O)OCCOCCOCCOCCOCCOC(=O)CCCCCCCCCCCCCCC	> 100 µM (inactive)	> 100 µM (inactive)	> 100 µM (inactive)	> 100 µM (inactive)	> 100 µM (inactive)	> 100 µM (inactive)	> 100 µM (inactive)	> 100 µM (inactive)	> 100 µM (inactive)	> 100 µM (inactive)	> 100 µM (inactive)	> 10 µM (inactive)	> 100 µM (inactive)	> 100 µM (inactive)	> 100 µM (inactive)	> 100 µM (inactive)	–	> 100 µM (inactive)	–
Oc1ccc2ccccc2c1/N=N/c1ccc(Br)cc1	27.8 µM (inactive)	> 100 µM (inactive)	> 100 µM (inactive)	> 100 µM (inactive)	> 100 µM (inactive)	> 100 µM (inactive)	> 100 µM (inactive)	89.1 µM (inactive)	> 100 µM (inactive)	> 100 µM (inactive)	77.6 µM (inactive)	95.5 µM (inactive)	87.5 µM (inactive)	–	> 100 µM (inactive)	> 100 µM (inactive)	–	28.9 µM (inactive)	> 100 µM (inactive)
CC(C)(C)c1ccc2c(c1)S(=O)(=O)Nc1ccc(Cl)cc1NS(=O)(=O)c1cc(C(C)(C)C)ccc1OCCOCCOCCO2	5.69 µM (inactive)	> 100 µM (inactive)	53.5 µM (inactive)	98.9 µM (inactive)	35.9 µM (inactive)	> 100 µM (inactive)	> 100 µM (inactive)	42.1 µM (inactive)	29.2 µM (inactive)	–	75 µM (inactive)	24 µM (inactive)	81.7 µM (inactive)	26 µM (inactive)	55.7 µM (inactive)	35 µM (inactive)	–	21.6 µM (inactive)	–
O=[N+]([O-])c1ccc(Cl)c(C2SCc3nc4ccccc4n32)c1 (configuration not stated)	–	24.2 µM (inactive)	17.3 µM (inactive)	35 µM (inactive)	31.6 µM (inactive)	27.7 µM (inactive)	40.6 µM (inactive)	44.9 µM (inactive)	41.8 µM (inactive)	32.1 µM (inactive)	29 µM (inactive)	24.9 µM (inactive)	–	28.7 µM (inactive)	28.1 µM (inactive)	43.3 µM (inactive)	–	32.6 µM (inactive)	–
O=C1NC(=O)C2C1C1C=C3c4ccccc4N(c4ccccc4)C32[C@H]2C(=O)NC(=O)[C@@H]12 (some centres not stated)	> 100 µM (inactive)	> 100 µM (inactive)	> 100 µM (inactive)	> 100 µM (inactive)	> 100 µM (inactive)	> 100 µM (inactive)	> 100 µM (inactive)	> 100 µM (inactive)	–	–	> 100 µM (inactive)	> 100 µM (inactive)	> 100 µM (inactive)	> 100 µM (inactive)	> 100 µM (inactive)	> 100 µM (inactive)	–	> 100 µM (inactive)	–
CC(=O)C(I(OS(=O)(=O)c1ccc(C)cc1)c1ccccc1)=P(c1ccccc1)(c1ccccc1)c1ccccc1	14.8 µM (inactive)	26.4 µM (inactive)	> 100 µM (inactive)	–	21.2 µM (inactive)	30.6 µM (inactive)	18 µM (inactive)	> 100 µM (inactive)	29.2 µM (inactive)	–	16.2 µM (inactive)	–	22.1 µM (inactive)	58.5 µM (inactive)	22.6 µM (inactive)	32.6 µM (inactive)	35.8 µM (inactive)	99.3 µM (inactive)	26.5 µM (inactive)

— ChEMBL document CHEMBL1201862, “PubChem BioAssay data set” (2004)
